The values below come from patent US20240358862A1, “Synthesis Method and Application of a Near-infrared Probe GGa-ICG specific binding to PSCA” (Guangzhou Shiyun Biotechnology Co., Ltd, priority 2022, published 2024).

Data set [1] concerns the target T1, PSCA (Homo sapiens, UniProt O43653).
T1 sequence (O43653 12-83): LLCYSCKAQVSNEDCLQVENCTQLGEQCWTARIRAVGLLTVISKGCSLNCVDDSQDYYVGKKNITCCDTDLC
Briefly: In vivo blocking of GGa-ICG by PSCA antibodies. The arrangement: endogenous in cells; species or system nude mice. The note with it: 1 mg PSCA antibody pre-injected, GGa-ICG 12 hours later. As for the experimental part:
1 mg of PSCA antibody was pre-injected into nude mice, followed by injection of GGa-ICG 12 hours later, and live imaging was performed to observe the phenomenon of GGa-ICG binding.

The next data set deals with PC tissues. Briefly: GGa-ICG staining of PC clinical tissue sections (confocal fluorescence microscopy). Particulars: 200 nM, paraffin sections. As for the experimental part:
Methods: Paraffin tissue blocks were provided by the Pathology Department of the Third Affiliated Hospital of Sun Yat-sen University (Guangzhou, China). Tissue sections were deparaffinized twice in xylene for 10 min each time, followed by rehydration in a series of graded ethanol (100%, 95%, and 70%) and rinsed in deionized water. After washing in PBS for 5 min, the sections were incubated in TE buffer (10 mM Tris, 1 mM EDTA, pH=8.0, per liter of ddH2O) and boiled in a microwave oven until boiling, then kept at 95° C. for 15 min to retrieve the antigen. The sections were allowed to cool naturally to room temperature and then washed three times with fresh PBS. After histological processing, tissue sections were incubated with binding buffer containing 20% FBS and 0.1 mg/mL Herring Sperm DNA at room temperature for 60 min, followed by incubation with 200 nM GGa-ICG in the binding buffer at 4° C. for 60 min. The sections were washed three times with fresh PBS, dehydrated, and sealed with Antifade PVA mounting medium. Finally, stained sections were imaged using a spinning disk confocal fluorescence microscope (Olympus IX71, Japan). Adjacent sections were stained with […] HE staining. Fluorescence signals were observed using a 40× objective lens (NA 0.90, UPLSAPO, Olympus, Japan). Images were analyzed using FV10-ASW 3.1 software.

Data set [2] deals with T1, PSCA. Briefly: Binding site of GGa-ICG on PSCA protein. The note with it: sequence ALQPGTALLCYSCKA
The target of data set [3] is T1, PSCA. In words: Mass spectrometry analysis of the target protein of GGa-ICG. Type of data set: binding. Details: Membrane proteins of PC-3 cells were extracted; endogenous in cells; host or cells: PC-3. Particulars: PC-3 membrane proteins, 35 kDa band. As for the experimental part: PC-3 cells were washed three times with cold PBS buffer and lysed at 4° C. for 30 minutes in 5 mL of low-salt buffer [50 mM Tris-HCl (pH=7.5) containing protease inhibitor (0.1 mM PMSF complex)]. After centrifugation, the pellets were washed 3 times with 5 mL of low-salt buffer and then solubilized in 1.5 mL of lysis buffer (PBS containing 5 mM MgCl2 and 1% Triton X-100) at 4° C. for 30 minutes. The resulting supernatants were separately incubated with beads, ssDNA-ICG, or GGa-ICG at 4° C. for 1 hour. Protein-ssDNA-ICG or protein-GGa-ICG complexes were then captured by incubating them with 2 mg (200 μL) of streptavidin beads at 4° C. for 45 minutes. After centrifugation, the captured proteins were heated and eluted in 30 μL of loading buffer and then analyzed by SDS-PAGE gel and Coomassie blue staining. The protein bands showing significant differences in aptamer purification among different groups were subjected to in situ digestion and analyzed by LC-MS/MS.
Based on the above results, total membrane proteins were extracted from PC-3 cells and incubated with biotinylated GGa-ICG or ssDNA-ICG separately. Then, the binding complex was separated using streptavidin-coated magnetic beads and analyzed by SDS-PAGE gel. A characteristic protein band with a relative molecular weight of 35 kDa was found in the GGa-ICG column, which was digested and analyzed by LC-MS/MS QSTAR.

Another data set relates to PC-3 cells. Briefly: Affinity detection by flow cytometry. The note with it: PC3 cells, 0-500 nM, 37° C., read-out: dissociation constant. Type of data set: binding, human. As for the experimental part:
To test the affinity of different GGa-ICG aptamers for PC-3 cells, aptamers at different concentrations (0, 10, 20, 50, 100, 200, 500 nM) are incubated with 2×10^5 cells at 37° C. After digestion into a cell suspension, flow cytometry was used for analysis. The average fluorescence intensity of the background was subtracted from that of each sample. The equilibrium dissociation constant (Kd) for aptamer-cell interactions is calculated using SigmaPlot software.
Background: A flow cytometer gives signals particle by particle.

The subject of data set [4] is tumor cell lines with elevated PSCA expression. In words: Flow cytometry binding to other tumor cell lines. Format: cell-based. From the text:
PSCA is expressed at high levels in various tumors such as prostate cancer, bladder cancer, kidney cancer, breast cancer, colon cancer, lung cancer, pancreatic cancer, etc. Using the aforementioned method, T24 bladder cancer cells, Cakil renal cancer cells, MDA-MB468 breast cancer cells, HT29 colon cancer cells, PANC1 pancreatic cancer cells, NCI-H460 lung cancer cells, and other cell lines were stained with GGa-ICG for flow cytometry analysis. Positive cell lines were used to establish subcutaneous transplantation tumor models to detect the visualization of GGa-ICG in vivo.

The nature of data set [5]: Fluorescence stability detection. Type of data set: physicochemical. As for the experimental part: Stability testing was divided into two groups: 1) stability testing under excitation wavelength and 2) stability testing of GGa-ICG under visible light. Excitation wavelength of 780 nm (GGa-ICG, ssDNA-ICG, and ICG) and visible light were used to excite the fluorescence probe GGa-ICG. Fluorescence detection was performed, and the changes in fluorescence intensity were recorded using a fluorescence spectrophotometer.

The next data set concerns cells. In words: MTT experiment (in vitro cell toxicity). Type of data set: cell-based. The note with it: 2-20 times the Kd value concentration. As for the experimental part: MTT assay was used to measure the in vitro cell toxicity in a 96-well plate. In brief, cells (6×10^3 cells per well) were treated with GGa-ICG (at concentrations of 0, 20, 200 nM, 10 μM, etc.), free drugs, or hybrids in the culture medium (RPMI1640 without FBS, unless otherwise specified; 37° C.; 5% CO2). […]

For “GGa-ICG: near-infrared probe: PSCA-binding nucleic acid aptamer GGa linked at 3′ to an ICG derivative dye (DNA TGCCACTACAGCTGGTTCGGTTTGGTGACTTCGTTCTTCGTTGTGGT; 3'-ICG dye, further chemistry not given here)”, the “blocking of tumor visualization by PSCA antibody” value with PSCA [1] is given as “Completely Blocked”. In addition, in the data set with PC tissues, the “binding rate with PC tissues” value came to 82.5%; the “fluorescence signal in PC and metastatic tissues” value was “Strong fluorescence signals”; the “fluorescence signal in normal tissues” value is listed as “No fluorescence signal”. The “binding site on PSCA protein (amino acids)” value in the data set with PSCA [2] is 14-28. Besides, the “target protein hit list by LC-MS/MS” value with PSCA [3] is on record as “PSCA ranking first”. The Kd in the data set with PC-3 cells came to 54.9 nM. Besides, the “binding to tumor cell lines with elevated PSCA expression” value in data set [4] is “could bind”. The “time after which fluorescence was extinguished” value in data set [5] (after excitation at 780 nm) came to 1 h. Further, the “fluorescence quenching under visible light excitation” value in data set [5] (visible light, during the detection time) is reported as “did not exhibit fluorescence quenching”. In addition, the “cell inhibition in MTT experiment” value in the data set with cells is reported as “no significant cell inhibition”.
